Patent US8247211B2, “Glycopeptide antibiotics” (American Cyanamid Company, priority 2001, dated 2012)
Values after ≈ are worked out from the molar mass of the structure shown.

How the values were obtained:
Assay in all cases: In vitro antibacterial evaluation: minimum inhibitory concentration (MIC), broth dilution method
Type in all cases: cell-based
[1] = system: Escherichia coli; settings: 18 hours at 35° C.
Procedure, shortened: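 First, organisms are seeded at 5×10^5 CFU/mL into Muller-Hinton II […]. Next, antibiotic is applied across 64-0.06 μg/mL by broth dilution (NCCLS M7-A2). Finally, the lowest inhibitory concentration is recorded as MIC.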

[2] = system: Enterococcus sp.; settings: 18 hours at 35° C.
Procedure, shortened: (§1)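 NCCLS M7-A2 broth dilution; Muller-Hinton II […]; 5×10^5 CFU/mL; 64-0.06 μg/mL. MIC = lowest concentration with no growth.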

[3] = system: Staphylococcus sp.
Procedure, shortened: as §1

[4] = system: Streptococcus sp.; settings: 18 hours at 35° C.
Procedure, shortened: as §1

[5] = broth dilution, inoculum 5×10^5 CFU/mL

MIC Escherichia coli (ATCC 25922) ([1]; Escherichia coli (ATCC 25922)): 64 µg/mL (≈ 42.3 µM)
MIC Escherichia coli (GC 4559) ([1]; Escherichia coli (GC 4559)): >64 µg/mL
MIC Escherichia coli (GC 4560) ([1]; Escherichia coli (GC 4560)): 8 µg/mL (≈ 5.29 µM)
MIC Enterococcus avium (GC 4558) ([2]; Enterococcus avium (GC 4558)): 4 µg/mL (≈ 2.65 µM)
MIC Enterococcus faecalis (ATCC 29212) ([2]; Enterococcus faecalis (ATCC 29212)): 4 µg/mL (≈ 2.65 µM)
MIC Enterococcus faecalis (GC 2242) ([2]; Enterococcus faecalis (GC 2242)): 4 µg/mL (≈ 2.65 µM)
MIC Enterococcus faecalis (GC 2691) ([2]; Enterococcus faecalis (GC 2691)): 4 µg/mL (≈ 2.65 µM)
MIC Enterococcus faecalis (GC 3059) ([2]; Enterococcus faecalis (GC 3059)): 4 µg/mL (≈ 2.65 µM)
MIC Enterococcus faecalis (GC 4552) ([2]; Enterococcus faecalis (GC 4552)): 4 µg/mL (≈ 2.65 µM)
MIC Enterococcus faecalis (GC 4553) ([2]; Enterococcus faecalis (GC 4553)): 4 µg/mL (≈ 2.65 µM)
MIC Enterococcus faecalis (GC 4554) ([2]; Enterococcus faecalis (GC 4554)): 4 µg/mL (≈ 2.65 µM)
MIC Enterococcus faecalis (GC 6189) ([2]; Enterococcus faecalis (GC 6189)): 4 µg/mL (≈ 2.65 µM)
MIC Enterococcus faecium (GC 2243) ([2]; Enterococcus faecium (GC 2243)): 4 µg/mL (≈ 2.65 µM)
MIC Enterococcus faecium (GC 4556) ([2]; Enterococcus faecium (GC 4556)): 4 µg/mL (≈ 2.65 µM)
MIC Enterococcus faecium (GC 4557) ([2]; Enterococcus faecium (GC 4557)): 4 µg/mL (≈ 2.65 µM)
MIC Enterococcus avium (GC 4558) [2, 5]: 4 µg/mL (≈ 2.65 µM)
MIC Enterococcus faecalis (ATCC 29212) [2, 5]: 4 µg/mL (≈ 2.65 µM)
MIC Enterococcus faecalis (GC 2242) [2, 5]: 4 µg/mL (≈ 2.65 µM)
MIC Enterococcus faecalis (GC 2691) [2, 5]: 4 µg/mL (≈ 2.65 µM)
MIC Enterococcus faecalis (GC 3059) [2, 5]: 4 µg/mL (≈ 2.65 µM)
MIC Enterococcus faecalis (GC 4552) [2, 5]: 4 µg/mL (≈ 2.65 µM)
MIC Enterococcus faecalis (GC 4553) [2, 5]: 4 µg/mL (≈ 2.65 µM)
MIC Enterococcus faecalis (GC 4554) [2, 5]: 4 µg/mL (≈ 2.65 µM)
MIC Enterococcus faecalis (GC 6189) [2, 5]: 4 µg/mL (≈ 2.65 µM)
MIC Enterococcus faecium (GC 2243) [2, 5]: 4 µg/mL (≈ 2.65 µM)
MIC Enterococcus faecium (GC 4556) [2, 5]: 4 µg/mL (≈ 2.65 µM)
MIC Enterococcus faecium (GC 4557) [2, 5]: 4 µg/mL (≈ 2.65 µM)
MIC Staphylococcus aureus (ATCC 29213) ([3]; strain ATCC 29213): 4 µg/mL (≈ 2.65 µM)
MIC Staphylococcus aureus (GC 1131) ([3]; strain GC 1131): 4 µg/mL (≈ 2.65 µM)
MIC Staphylococcus aureus (GC 3051) ([3]; strain GC 3051): 4 µg/mL (≈ 2.65 µM)
MIC Staphylococcus aureus (GC 3053) ([3]; strain GC 3053): 4 µg/mL (≈ 2.65 µM)
MIC Staphylococcus aureus (GC 4541) ([3]; strain GC 4541): 4 µg/mL (≈ 2.65 µM)
MIC Staphylococcus aureus (GC 4542) ([3]; strain GC 4542): 4 µg/mL (≈ 2.65 µM)
MIC Staphylococcus aureus-SMITH (GC 4543) ([3]; strain GC 4543): 4 µg/mL (≈ 2.65 µM)
MIC Staphylococcus aureus (GC 4544) ([3]; strain GC 4544): 4 µg/mL (≈ 2.65 µM)
MIC Staphylococcus aureus (GC 4545) ([3]; strain GC 4545): 4 µg/mL (≈ 2.65 µM)
MIC Coagulase Negative Staphylococcus (GC 4547) ([3]; strain GC 4547): 4 µg/mL (≈ 2.65 µM)
MIC Coagulase Negative Staphylococcus (GC 4548) ([3]; strain GC 4548): 4 µg/mL (≈ 2.65 µM)
MIC Coagulase Negative Staphylococcus (GC 4549) ([3]; strain GC 4549): 4 µg/mL (≈ 2.65 µM)
MIC Coagulase Negative Staphylococcus (GC 4551) ([3]; strain GC 4551): 8 µg/mL (≈ 5.29 µM)
MIC Coagulase Negative Staphylococcus (GC 6257) ([3]; strain GC 6257): 4 µg/mL (≈ 2.65 µM)
MIC Streptococcus agalactiae (GC 4564) ([4]; Streptococcus agalactiae (GC 4564)): 0.25 µg/mL (≈ 0.165 µM)
MIC Streptococcus pneumoniae (ATCC 6301) ([4]; Streptococcus pneumoniae (ATCC 6301)): 0.12 µg/mL (≈ 0.0794 µM)
MIC Streptococcus pneumoniae (GC 1894) ([4]; Streptococcus pneumoniae (GC 1894)): <0.06 µg/mL
MIC Streptococcus pneumoniae (GC 4565) ([4]; Streptococcus pneumoniae (GC 4565)): 0.12 µg/mL (≈ 0.0794 µM)
MIC Streptococcus pyogenes (GC 4563) ([4]; Streptococcus pyogenes (GC 4563)): 0.5 µg/mL (≈ 0.331 µM)
MIC Streptococcus agalactiae (GC 4564) [4, 5]: 0.25 µg/mL (≈ 0.165 µM)
MIC Streptococcus pneumoniae (ATCC 6301) [4, 5]: 0.12 µg/mL (≈ 0.0794 µM)
MIC Streptococcus pneumoniae (GC 1894) [4, 5]: <0.06 µg/mL
MIC Streptococcus pneumoniae (GC 4565) [4, 5]: 0.12 µg/mL (≈ 0.0794 µM)
MIC Streptococcus pyogenes (GC 4563) [4, 5]: 0.5 µg/mL (≈ 0.331 µM)
SMILES: CC(C)CC(=O)OC1C(O)C(OC2C(CO)OC(Oc3ccc(CC4NC(=O)C(C(C)c5ccccc5)NC(=O)CNC(=O)C(CO)NC(=O)C(C(O)C5CNC(=N)N5C5OC(CO)C(O)C(O)C5O)NC(=O)C(C(O)C5CNC(=N)N5)NC4=O)cc3)C(O)C2O)OC2COC3(OC21)C1CC2CC(C1)CC3C2 (stereo not drawn) [Example 218, Cyclo[glycyl-β-methylphenylalanyl-O-[4-O-[4,6-O-(2-adamantylidene)-3-O-(3-methyl-butanoyl)-hexopyranosyl]hexopyranosyl]tyrosyl-3-(2-iminoimidazolidin-4-yl)-seryl-3-(3-hexopyranosyl-2-iminoimidazolidin-4-yl)serylseryl]]
MIC Staphylococcus haemolyticus (GC 4546) ([3]; strain GC 4546): 4 µg/mL (≈ 2.65 µM)
